For 23 molecules, mortality results are on record in patent US20240425502A1, “BICYCLIC HETEROAROMATIC COMPOUNDS AND THEIR USE AS PEST CONTROL AGENTS” (PI INDUSTRIES LTD., priority 2021, published 2024).

Structures are written as SMILES.

As a reminder, the mortality is the percentage killed.

One test relates to Nilaparvata lugens. Nature of the test: Nilaparvata lugens seedling dip test (paddy seedlings, third instar nymphs). Format: in vivo. To be noted: 72 h after release, dead and moribund combined, compared to untreated control, read-out: percent mortality.
A further test concerns Myzus persicae. As to the kind of experiment: Myzus persicae leaf dip test (capsicum leaves, third instar nymphs). Format: in vivo. To be noted: foliar, 72 h after release, dead and moribund combined, compared to untreated control, read-out: percent mortality.

`O=c1nc2n(Cc3cnc(Cl)s3)cccc-2c(=O)n1-c1ccc(F)c(Cl)c1` [Compound 165, 3-(3-chloro-4-fluorophenyl)-8-((2-chlorothiazol-5-yl)methyl)pyrido[2,3-d]pyrimidine-2,4(3H,8H)-dione]: the mortality at 300 ppm with Nilaparvata lugens was at least 70%. `O=c1nc2n(Cc3cnc(Cl)s3)cccc-2c(=O)n1-c1ccc(OC(F)(F)F)c(Cl)c1` [Compound 212, 3-(3-chloro-4-(trifluoromethoxy)phenyl)-8-((2-chlorothiazol-5-yl)methyl)pyrido[2,3-d]pyrimidine-2,4(3H,8H)-dione]: the mortality at 300 ppm in the test with Nilaparvata lugens and in the test on Myzus persicae was at least 70% in each case. On to `O=c1nc2n(Cc3ccc(Cl)nc3)cccc-2c(=O)n1-c1ccc(OC(F)(F)F)c(Cl)c1` [Compound 195, 3-(3-chloro-4-(trifluoromethoxy)phenyl)-8-((6-chloropyridin-3-yl)methyl)pyrido[2,3-d]pyrimidine-2,4(3H,8H)-dione], for which the mortality at 300 ppm in the test on Nilaparvata lugens and in the test with Myzus persicae was at least 70% in each case. Turning to `O=c1nc2n(Cc3cnc(Cl)s3)cccc-2c(=O)n1-c1ccc(Cl)cc1F` [Compound 193, 3-(4-chloro-2-fluorophenyl)-8-((2-chlorothiazol-5-yl)methyl)pyrido[2,3-d]pyrimidine-2,4(3H,8H)-dione], the mortality at 300 ppm in the test on Nilaparvata lugens and in the test with Myzus persicae was at least 70% in each case.

For the molecule `O=c1nc2n(Cc3cnc(Cl)s3)cccc-2c(=O)n1-c1cccc(F)c1F` [Compound 214, 8-((2-chlorothiazol-5-yl)methyl)-3-(2,3-difluorophenyl)pyrido[2,3-d]pyrimidine-2,4(3H,8H)-dione], the mortality at 300 ppm in the test on Nilaparvata lugens and in the test on Myzus persicae was at least 70% each time.

`COc1cccc(-n2c(=O)nc3n(Cc4cnc(Cl)s4)cccc-3c2=O)c1` [Compound 72, 8-((2-chlorothiazol-5-yl)methyl)-3-(3-methoxyphenyl)pyrido[2,3-d]pyrimidine-2,4(3H,8H)-dione]: the mortality at 300 ppm with Nilaparvata lugens was at least 70%. Turning to `O=c1nc2n(Cc3ccc(Cl)nc3)cccc-2c(=O)n1-c1cccc(OCC(F)(F)F)c1` [Compound 211, 8-((6-chloropyridin-3-yl)methyl)-3-(3-(2,2,2-trifluoroethoxy)phenyl)pyrido[2,3-d]pyrimidine-2,4(3H,8H)-dione], the mortality at 300 ppm in the test on Nilaparvata lugens and with Myzus persicae was at least 70% in each case. `O=c1nc2n(Cc3cnc(Cl)s3)cccc-2c(=O)n1-c1cccc(Cl)c1F` [Compound 217, 3-(3-chloro-2-fluorophenyl)-8-((2-chlorothiazol-5-yl)methyl)pyrido[2,3-d]pyrimidine-2,4(3H,8H)-dione]: the mortality at 300 ppm in the test with Nilaparvata lugens and in the test on Myzus persicae was at least 70% throughout. `O=c1nc2n(Cc3cnc(Cl)s3)cccc-2c(=O)n1-c1cccc(Br)c1` [Compound 249, 3-(3-bromophenyl)-8-((2-chlorothiazol-5-yl)methyl)pyrido[2,3-d]pyrimidine-2,4(3H,8H)-dione]: the mortality at 300 ppm in the test with Nilaparvata lugens was at least 70%. Regarding `O=c1nc2n(Cc3ccc(Cl)nc3)cccc-2c(=O)n1-c1ccc(F)c(C(F)(F)F)c1` [Compound 222, 8-((6-chloropyridin-3-yl)methyl)-3-(4-fluoro-3-(trifluoromethyl)phenyl)pyrido[2,3-d]pyrimidine-2,4(3H,8H)-dione], in the test with Myzus persicae, the mortality at 300 ppm is at least 70%. As to `O=c1nc2n(Cc3cnc(Cl)s3)cccc-2c(=O)n1-c1cccc(F)c1` [Compound 143, 8-((2-chlorothiazol-5-yl)methyl)-3-(3-fluorophenyl)pyrido[2,3-d]pyrimidine-2,4(3H,8H)-dione], in the test on Nilaparvata lugens, the mortality at 300 ppm is at least 70%.

As to `O=c1nc2n(Cc3cnc(Cl)nc3)cccc-2c(=O)n1-c1ccsc1` [Compound 179, 8-((2-chloropyrimidin-5-yl)methyl)-3-(thiophen-3-yl)pyrido[2,3-d]pyrimidine-2,4(3H,8H)-dione], the mortality at 300 ppm in the test on Nilaparvata lugens and in the test on Myzus persicae was at least 70% each time.

For the molecule `O=c1nc2n(Cc3ccc(C(F)(F)F)nc3)cccc-2c(=O)n1-c1ccccc1F` [Compound 162, 3-(2-fluorophenyl)-8-((6-(trifluoromethyl)pyridin-3-yl)methyl)pyrido[2,3-d]pyrimidine-2,4(3H,8H)-dione], the mortality at 300 ppm in the test on Nilaparvata lugens is at least 70%. As to `O=c1nc2n(Cc3cnc(Cl)nc3)cccc-2c(=O)n1-c1cccc(Cl)c1F` [Compound 226, 3-(3-chloro-2-fluorophenyl)-8-((2-chloropyrimidin-5-yl)methyl)pyrido[2,3-d]pyrimidine-2,4(3H,8H)-dione], the mortality at 300 ppm in the test on Nilaparvata lugens and in the test on Myzus persicae was at least 70% in each case. `O=c1nc2n(Cc3cnc(Cl)s3)cccc-2c(=O)n1-c1c(F)cccc1F` [Compound 215, 8-((2-chlorothiazol-5-yl)methyl)-3-(2,6-difluorophenyl)pyrido[2,3-d]pyrimidine-2,4(3H,8H)-dione]: the mortality at 300 ppm in the test on Nilaparvata lugens is at least 70%. Take `O=c1nc2n(Cc3cnc(Cl)nc3)cccc-2c(=O)n1-c1ccc(OC(F)F)cc1` [Compound 160, 8-((2-chloropyrimidin-5-yl)methyl)-3-(4-(difluoromethoxy)phenyl)pyrido[2,3-d]pyrimidine-2,4(3H,8H)-dione]: the mortality at 300 ppm with Nilaparvata lugens and with Myzus persicae was at least 70% in each case. On to `O=c1nc2n(Cc3cnc(Cl)nc3)cccc-2c(=O)n1-c1ccc(C2CC2)cc1` [Compound 245, 8-((2-chloropyrimidin-5-yl)methyl)-3-(4-cyclopropylphenyl)pyrido[2,3-d]pyrimidine-2,4(3H,8H)-dione], for which, in the test with Nilaparvata lugens, the mortality at 300 ppm is at least 70%.

Consider `O=c1nc2n(Cc3ccc(C(F)(F)F)nc3)cccc-2c(=O)n1-c1cccc(C(F)(F)F)c1` [Compound 172, 3-(3-(trifluoromethyl)phenyl)-8-((6-(trifluoromethyl)pyridin-3-yl)methyl)pyrido[2,3-d]pyrimidine-2,4(3H,8H)-dione], for which, in the test on Myzus persicae, the mortality at 300 ppm is at least 70%. Turning to `Cc1cccc(-n2c(=O)nc3n(Cc4cnc(Cl)nc4)cccc-3c2=O)c1` [Compound 128, 8-((2-chloropyrimidin-5-yl)methyl)-3-(m-tolyl)pyrido[2,3-d]pyrimidine-2,4(3H,8H)-dione], the mortality at 300 ppm with Nilaparvata lugens was at least 70%. On the same count and under the same terms, next, `O=c1nc2n(Cc3ccc(Cl)nc3)cccc-2c(=O)n1-c1ccc(Cl)c(C(F)(F)F)c1` [Compound 219, 3-(4-chloro-3-(trifluoromethyl)phenyl)-8-((6-chloropyridin-3-yl)methyl)pyrido[2,3-d]pyrimidine-2,4(3H,8H)-dione]: at least 70%. The same measure, in the same setting: for `O=c1nc2n(Cc3cnc(Cl)s3)cccc-2c(=O)n1-c1ccc(F)cc1Cl` [Compound 237, 3-(2-chloro-4-fluorophenyl)-8-((2-chlorothiazol-5-yl)methyl)pyrido[2,3-d]pyrimidine-2,4(3H,8H)-dione] the value was at least 70%; for `O=c1nc2n(Cc3cnc(Cl)s3)cccc-2c(=O)n1-c1ccc(F)cc1` [Compound 153, 8-((2-chlorothiazol-5-yl)methyl)-3-(4-fluorophenyl)pyrido[2,3-d]pyrimidine-2,4(3H,8H)-dione], at least 70%. The same measure, in the same setting: for `O=c1nc2n(Cc3cnc(Cl)s3)cccc-2c(=O)n1-c1ccccc1` [Compound 62, 8-((2-chlorothiazol-5-yl)methyl)-3-phenylpyrido[2,3-d]pyrimidine-2,4(3H,8H)-dione] the value was at least 70%.
